Article PMC11173382, “In Vitro Investigations into the Potential Drug Interactions of Pseudoginsenoside DQ Mediated by Cytochrome P450 and Human Drug Transporters” (Molecules, 2024)

Target: T1, hOCT2 (Homo sapiens, UniProt O15244)
T1 construct: host or cells: S2-OCT2
T1 sequence (O15244 1-555): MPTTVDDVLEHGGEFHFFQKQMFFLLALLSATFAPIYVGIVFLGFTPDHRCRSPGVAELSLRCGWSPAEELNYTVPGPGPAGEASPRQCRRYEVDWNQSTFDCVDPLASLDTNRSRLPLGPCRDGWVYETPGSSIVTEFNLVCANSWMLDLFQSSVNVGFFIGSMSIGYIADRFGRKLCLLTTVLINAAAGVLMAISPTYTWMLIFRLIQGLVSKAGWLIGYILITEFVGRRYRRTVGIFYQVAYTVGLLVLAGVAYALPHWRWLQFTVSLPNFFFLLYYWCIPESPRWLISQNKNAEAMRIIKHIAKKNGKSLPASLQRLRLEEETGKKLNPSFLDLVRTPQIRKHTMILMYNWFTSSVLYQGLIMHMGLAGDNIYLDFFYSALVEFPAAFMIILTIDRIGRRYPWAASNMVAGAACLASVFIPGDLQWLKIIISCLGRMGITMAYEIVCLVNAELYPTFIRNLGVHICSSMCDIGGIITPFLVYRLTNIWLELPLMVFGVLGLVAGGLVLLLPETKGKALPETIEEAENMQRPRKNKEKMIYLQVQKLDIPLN
Experiment: Substrates uptake assay, S2-OCT2 cells (14C-TEA)
Assay type: in vitro ADME
Details: for Transport activity of OCT2 (main text: percentage inhibition): negative control = 100%
Text: Drug transporters mediate the cellular uptake and efflux of their substrates. Therefore, cell lines overexpressing a drug transporter can be utilized to investigate inhibitors of the transporter by assessing changes in substrate uptake. For each drug transporter, we selected a well-characterized inhibitor as the positive control. Radiolabeled substrates were used to indicate the decrease in transport efficiency when the drug transporters were inhibited by PDQ or the control inhibitors.
The concentrations of the control drugs and the substrates were stated in the assay details. Working solutions of the control inhibitors, the radiolabeled substrates, and each dose of PDQ were prepared at 200 times (200×) more concentrated solutions with DMSO for further dilution.
Transporter-overexpressed cell lines. Human organic anion transporter-overexpressed cell lines MDCKII-OAT1 and S2-OAT3, human organic anion transport polypeptide-overexpressed cell lines HEK293A-OATP1B1 and HEK293A-OATP1B3, human organic cation transporter 2-overexpressed cell line S2-OCT2, and human multi-drug resistance protein MDR1 (or P-gp)-overexpressed cell line MDCKII-MDR1 were gifts from Japan Fuji Biomedical Co., Ltd. (Fuji, Shizuoka Prefecture, Japan). Breast cancer resistance protein-overexpressed vesicles (sf9-BCRP vesicle) were purchased from GenoMembrane Co., Ltd. (Yokohama, Kanagawa, Japan).
Substrates uptake assay. In this assay, we studied the inhibition of PDQ against transporters OAT1, OAT3, OCT2, OATP1B1 and OATP1B3 with MDCKII-OAT1, S2-OAT3, S2-OCT2, HEK293A-OATP1B1and HEK293A-OATP1B3 cells, respectively. The radiolabeled substrates for OAT1, OAT3, OATP1B1, OATP1B3 and OCT2 were […], respectively (Table 5). Probenecid ([…]) was the positive control inhibitor of OAT1 and OAT3, while rifampicin ([…]) served as the control drug of OATP1B1 and OATP1B3. For OCT2, we used […] cimetidine to compare with the inhibitory effect of PDQ. Two times (2×) more concentrated working solutions of the drugs and the substrate were prepared with Dulbecco’s phosphate-buffered saline (DPBS, Gibco, Grand Island, NY, USA.). Then, an equal volume of 2× drug solution and 2× radiolabeled substrate solution were mixed as the working mix. All reagents were pre-warmed to 37 °C.
The cells were digested with 0.05% trypsin/EDTA. The density of the single-cell suspension was adjusted to 2.0 × 10^5 cells/mL for S2 cells and to 1.5 × 10^5 cells/mL for MDCK II and HEK293A cells. The cell suspension was then added to the reservoirs of the 24-well plate for culture until full confluency. The medium in the wells was removed, and the wells were washed with DPBS. Then, the plate was incubated for 10 min with pre-warmed DPBS in the wells. After removing DPBS, […] of working mix was added to each well to initiate the substrate uptake process. The reaction time was 5 min for S2-OCT2 cells, while the other four types of cells were incubated with the reaction mix for 2 min. Cold DPBS was used to terminate the substrate transportation. To each well, […] NaOH ([…]) was added to lyse the cells. Then, […] cell lysate was transferred to the counting vials, and 3 mL scintillation cocktail (Aquasol-2, PerkinElmer, Waltham, MA, USA) was added. […] Each sample was replicated three times (N = 3).
In = [100 × (U − U0)/(Uc − U0)]%(3)
The results were expressed as mean ± standard deviation (SD) and analyzed with GraphPad Prism 8.0 software (CA, USA). The IC50 of PDQ was curve-fitted with the FORECAST function. Statistical significance was calculated using a two-tailed test, and a p value < 0.05 was considered as significant.

`CC(C)(O)[C@@H]1CC[C@@](C)([C@H]2CC[C@]3(C)[C@@H]2[C@H](O)C[C@@H]2[C@@]4(C)CC[C@H](O)C(C)(C)[C@@H]4CC[C@]23C)O1` [PDQ, (20S,24S)-dammar-20,24-epoxy-3β, 12β, 25-triol] was tested, and the “DPM (14C-TEA uptake by OCT2)” value (inhibitor 0.1 μM) was 994.3±112.3 DPM, the “Transport activity of OCT2 (main text: percentage inhibition)” value (inhibitor 0.1 μM) was 101.6±11.5% and the “DPM (14C-TEA uptake by OCT2)” value (inhibitor 0.3 μM) was 741.3±35.0 DPM. For the same compound, the “Transport activity of OCT2 (main text: percentage inhibition)” value (inhibitor 0.3 μM) was 75.8±3.6%, the “DPM (14C-TEA uptake by OCT2)” value (inhibitor 1 μM) was 712.3±115.3 DPM and the “Transport activity of OCT2 (main text: percentage inhibition)” value (inhibitor 1 μM) was 72.8±11.8%. The “DPM (14C-TEA uptake by OCT2)” value (inhibitor 3 μM) was 661.7±93.5 DPM, the “Transport activity of OCT2 (main text: percentage inhibition)” value (inhibitor 3 μM) was 67.6±9.6% and the “DPM (14C-TEA uptake by OCT2)” value (inhibitor 10 μM) was 612.0±28.7 DPM. For the same compound, the “Transport activity of OCT2 (main text: percentage inhibition)” value (inhibitor 10 μM) was 62.6±2.9% and the “DPM (14C-TEA uptake by OCT2)” value (inhibitor 30 μM) was 578.0±29.5 DPM.
